Test results from ChEMBL document CHEMBL1128033, “Design and synthesis of new leads for PKC bisubstrate inhibitors” (Bioorg Med Chem Lett, 1994).

Assays:
Protein kinase C (PKC) = assay: Inhibition of protein kinase C (PKC) using histone III S protein; type: protein assay
[1] = target: cAMP-dependent protein kinase (PKA) (Homo sapiens, UniProt P22694+P17612+P22612); assay: Inhibition of c-AMP dependent kinase (PKA) using histone II A protein; type: protein assay

IC50 (Protein kinase C (PKC)) [µM] | IC50 [1] [µM] | Compound
100 | 390 | NCCCNCCCNC1=C(c2cc3ccccc3[nH]2)C(=O)NC1=O
8 | 300 | NCCCCCNC1=C(c2cc3ccccc3[nH]2)C(=O)NC1=O
40 | 50 | NCCCCCCNC1=C(c2cc3ccccc3[nH]2)C(=O)NC1=O
110 | > 500 | NCCNCCCCCNC1=C(c2cc3ccccc3[nH]2)C(=O)NC1=O
5 | 150 | NCCCCCCCNC1=C(c2cc3ccccc3[nH]2)C(=O)NC1=O

The remaining lines, values behind:

Compound | IC50 (Protein kinase C (PKC)) [µM] | IC50 [1] [µM]
NCCNC1=C(c2cc3ccccc3[nH]2)C(=O)NC1=O | 90 | 100
NC(Cc1ccccc1)C(=O)NCCNCCCCCNC1=C(c2cc3ccccc3[nH]2)C(=O)NC1=O (stereo not drawn) | 95 | 120
NCCNCCNC1=C(c2cc3ccccc3[nH]2)C(=O)NC1=O | 120 | 310
NC(Cc1ccccc1)C(=O)NCCCCCNC1=C(c2cc3ccccc3[nH]2)C(=O)NC1=O (stereo not drawn) | 120 | 
NC(N)=NCCCC(N)C(=O)NCCNCCCCCNC1=C(c2cc3ccccc3[nH]2)C(=O)NC1=O (stereo not drawn) | 8 | 210
NC(CCC(=O)O)C(=O)NCCCCCNC1=C(c2cc3ccccc3[nH]2)C(=O)NC1=O (stereo not drawn) | 105 | 390
NC(N)=NCCCC(N)C(=O)NCCCCCNC1=C(c2cc3ccccc3[nH]2)C(=O)NC1=O (stereo not drawn) | 60 | 
C[C@H]1CNCCN1S(=O)(=O)c1cccc2cnccc12 | 6 | 
